# Assays:
# [1] = Hit confirmation in dose-response curve in HepG2 cytotoxicity assay, at 72h; assay type: toxicity, cell-based; set-up: timepoint 72 hour; conditions: human, HepG2 cells
# [2] = system: Plasmodium falciparum; assay: Hit confirmation in dose-response curve in NF54 nanoGlo assay, at 72h; assay type: functional, organism-based, Erythrocyte; set-up: timepoint 72 hour; conditions: Plasmodium falciparum, NF54, Erythrocyte, 72 h
# [3] = system: Plasmodium falciparum; assay: Hit confirmation in dose-response curve in Dd2 pLDH assay, at 72h; assay type: functional, organism-based; set-up: timepoint 72 hour; conditions: Dd2, Erythrocyte
# [4] = system: Plasmodium falciparum; assay: Hit confirmation in dose-response curve in NF54 pLDH assay, at 72h; assay type: functional, organism-based; set-up: timepoint 72 hour; conditions: NF54, Erythrocyte
# [5] = system: Plasmodium falciparum; assay: Hit confirmation in dose-response curve in NF54 nanoGlo assay, at 12h; assay type: functional, organism-based, Erythrocyte; set-up: timepoint 12 hour; conditions: Plasmodium falciparum, NF54, Erythrocyte, 12 h
IC50 [2] [µM],IC50 [3] [µM],IC50 [4] [µM],IC50 [5] [µM],SMILES,IC50 at 72 h [1] [µM]
1.51,> 10,> 10,0.501,Cn1c(N)c(S(=O)(=O)N2CCN(c3ccccc3Cl)CC2)c(=O)n(C)c1=O,> 10
1.15,1.78,1.55,10.7,CCc1ccc(CN2CCC[C@H](c3ncc[nH]3)C2)nc1,> 10
1.66,5.5,3.72,4.57,Cc1cccc(CN2CCC[C@H](C(=O)c3ccc4c5c(cccc35)CC4)C2)n1,> 10
1.29,1.17,1.45,2.82,COc1ccc(CN(Cc2ccncc2)CC2CCN(C3CCN(C)CC3)CC2)c(F)c1,> 10
0.316,0.372,0.363,0.417,Cc1cnccc1NCCNC1CCN(c2ccc(Cl)cc2)CC1,5.25
1.51,1.78,2.04,5.01,Cc1cc(N2C[C@H]3CC[C@@H](C2)[C@H]3N(C)C)nc(Nc2cccc(O)c2)n1,> 10
0.759,1.51,1.41,6.17,C[n+]1ccc(-c2ncc(-c3ccccc3)o2)c2ccccc21,> 10
3.31,4.37,4.47,5.62,Cc1ccc(OCCNc2cc([C@H]3C[C@H](N)C3)nc(C3CC3)n2)cc1C,> 10
3.24,6.31,6.31,5.13,Oc1cccc(CN2CCC3(CC2)C[C@H](c2ccccc2)CN(C2CC2)C3)c1,> 10
0.871,1.58,4.47,> 10,O=C1c2ccccc2C(c2ccc(NC(=O)c3cccc4ccccc34)cc2)(c2ccc(NC(=O)c3cccc4ccccc34)cc2)c2ccccc21,> 10
2.34,2.63,3.98,4.37,CC1(C)Cc2nc3ccccc3c(NCc3ccccc3)c2[C@@H](O)C1,> 10
2.57,6.46,6.46,8.13,S=c1cc(-c2ccccc2)n(Cc2ccco2)c2c1CCCC2,> 10
1.58,1.95,2.75,2.09,Oc1cc(CC[C@H]2CCCCN2)cc(-c2cnc3ccccc3n2)c1,> 10
4.07,> 10,> 10,1.58,Cc1nnc(NC(c2cnc3ccccc3c2)[C@H]2C[C@@H](O)C2)s1 (stereo not given in full),> 10
> 10,> 10,> 10,> 10,COC(=O)c1c(NC(C)=O)c2cc(NC3CCOCC3)cnc2n1CCc1ccc(OC)cc1,> 10
2,2.29,4.17,5.75,N[C@H]1C[C@@H](c2cc(N3CCN(C4CCCCC4)CC3)nc(N3CCCC3)n2)C1,> 10
4.07,> 10,> 10,4.47,CN1CCN(Cc2cc3cc4c(cc3nc2-c2ccc(Cl)cc2)OCO4)CC1=O,> 10
2.04,3.47,3.47,4.79,CCc1cc(N2C[C@@H]3NC(=O)CN(C)Cc4ccc(OC)c(c4)Oc4cccc(c4)CO[C@H]3C2)nc(N(C)C)n1,> 10
4.07,> 10,6.17,> 10,COc1nc(N2[C@@H]3CC[C@H]2C[C@@H](OC)C3)ncc1F,> 10
1,1.1,1.2,3.16,Cc1cccc2c(-c3cc(N)nc(N)n3)c[nH]c12,> 10
2.24,5.37,3.31,6.46,Cc1cc(N)nc(Nc2ccc(Nc3ccccc3)cc2)n1,> 10
1.78,3.02,0.832,4.27,CN1CC[C@H](CN(C)Cc2ccc3cc(O)ccc3c2)C1,> 10
2.09,4.27,6.46,> 10,O=C1NC(c2ccccc2)=NC12CCN(Cc1c(F)cccc1F)CC2,> 10
0.257,0.234,0.331,1.74,Cn1c(Cc2n[n+]3c(-c4ccccc4)cc(-c4ccccc4)nc3n2C)n[n+]2c(-c3ccccc3)cc(-c3ccccc3)nc12,4.79

IC50 [2] [µM],IC50 [3] [µM],IC50 [4] [µM],IC50 [5] [µM],SMILES,IC50 at 72 h [1] [µM]
0.589,0.417,0.182,> 10,CC[n+]1ccc(-c2ncc(-c3ccc(C(C)(C)C)cc3)o2)cc1,> 10
9.55,> 10,> 10,> 10,COc1ccc(-c2cc(-c3ccccc3)nc(N3CCC(C)CC3)n2)cc1,> 10
1.74,1.48,2.14,2.95,CN1CCN([C@H]2CCN(c3ccnc4ccc(Cl)cc34)C[C@H]2CCCO)CC1,> 10
2.14,2.82,3.63,3.63,CNC(=O)[C@@H]1C[C@H](NCc2cc(OC)c(OC)c(OC)c2)CN1CC(c1ccccc1)c1ccccc1,> 10
2.57,> 10,3.89,> 10,CCN1CCN(C2CCN(c3ncc(F)c(OC)n3)CC2)CC1,> 10
2.75,6.31,5.75,6.31,Nc1nc(N2CCN(c3ccc(F)c(Cl)c3)CC2)cc([C@H]2C[C@@H](N)C2)n1,> 10
2,1.78,3.8,8.51,O[C@H]1CNCC[C@@H]1Nc1cc(-c2ccccc2)nc2ccccc12,> 10
1.86,1.66,2.82,5.62,Cc1ccc(-c2cc(O)cc(CC[C@H]3CCCCN3)c2)c(C)n1,> 10
2.19,3.24,4.17,3.98,CN(Cc1ccc(-c2ccccc2)cc1)c1cc([C@H]2C[C@@H](N)C2)nc(N)n1,> 10
5.37,> 10,> 10,5.5,COc1c(C)cc(C(=O)[C@H]2CCCN(c3cc(N)ncn3)C2)cc1C,> 10
0.575,> 10,1.66,> 10,COc1nc(-c2cccc(C(=O)NCC3CCOCC3)c2)ncc1F,> 10
2.4,3.89,5.37,5.89,O=C(Nc1cccc(Cl)c1)Nc1cccc(-c2cnc3n2CCC3)c1,> 10
2.14,3.55,6.61,> 10,CCC(CC)C(=O)Nc1cc(C2CC2)nn1-c1nc(-c2ccccc2)cc(=O)[nH]1,> 10
1.66,2.63,3.63,4.07,COc1ccc(CNCCC2C(C)CN(C)C(C)C2Cc2ccccc2)cc1 (stereo not given),> 10
2.82,4.68,1.82,> 10,O=C(c1cc(-c2ccco2)n[nH]1)N1CCC(N2CCC(Oc3ccccc3F)CC2)CC1,> 10
1.58,2.04,2,3.55,N[C@H]1C[C@H](c2cc(NCCCc3cccnc3)nc(C3CC3)n2)C1,> 10
0.912,2.51,2.04,> 10,CC(CC1OCC(C[N+]2(Cc3ccccc3)CCCCC2)O1)CC(C)(C)C (stereo not given),> 10
2.19,> 10,9.77,9.33,COc1ccc2cccc(NC(=O)c3cc(-c4cc(OC)c(OC)c(OC)c4)n[nH]3)c2n1,> 10
1.95,3.31,3.8,3.89,Cc1c(-c2ccc(F)cc2)[nH]c2ccc(CNc3nccc(N(C)C)n3)cc12,> 10
2.51,> 10,> 10,1.86,Cc1nc(N2CCC(c3nc(-c4ccccc4)no3)CC2)c2c(C)noc2n1,> 10
0.708,0.603,1.17,1.74,CN1CCC(N2CCC(CN(Cc3ccncc3)Cc3c(F)cccc3Cl)CC2)CC1,> 10
2.19,5.13,3.98,2.45,O=C(N[C@H]1CC[C@@H]2CCC[C@@H]21)c1c[nH]c(=O)c(Cl)c1,> 10
1.2,3.09,4.79,2.63,N#Cc1cccc(-c2n[nH]c3c2CN(c2ccc(-c4ccccc4)nn2)CC3)c1,> 10
3.72,3.63,6.03,> 10,O=C(CCCc1ccccc1)Nc1cc(C2CC2)nn1-c1nc(-c2ccccc2)cc(=O)[nH]1,> 10

SMILES,IC50 [2] [µM],IC50 [3] [µM],IC50 [4] [µM],IC50 [5] [µM],IC50 at 72 h [1] [µM]
C=CCCC(CN1C[C@H]2CC=CC[C@H]2C1)Oc1ncc(F)cn1 (stereo not given in full),0.0178,> 10,0.0224,7.41,> 10

# — ChEMBL document CHEMBL4888484, “Replenishing the malaria drug discovery pipeline: Screening and hit evaluation of the MMV Hit Generation Library 1 (HGL1) against asexual blood stage Plasmodium falciparum ,using a nano luciferase reporter read-out” (2022)
